# Measured values: US20240325544A1, “CATIONIC LIPID FOR COVALENT MODIFICATION OF PEPTIDES” (PharmalN Corporation, priority 2023, published 2024)
# Bridge positions count the residues as written; N and C are the ends. Square brackets hold non-standard residues; d marks the D form. Peptide text beside a SMILES is read from it. * marks the point of attachment. Stearoyl = CCCCCCCCCCCCCCCCCC(=O)*; Palmitoyl = CCCCCCCCCCCCCCCC(=O)*; Dab = NCC[C@H](N)C(=O)O; Hexanoyl = CCCCCC(=O)*
# Experiments:
# Sprague Dawley rats [1] = assay: Dose-range finding of cationic alkyl modified CNP, subcutaneous bolus in rats (Table 2)
# Experimental: Animal care and treatment: Male Sprague Dawley rats aged 8 to 10 weeks (Charles River, Hollister, CA) were housed in groups of two (n=3/group) in disposable polypropylene cages with rodent cob bedding at the PharmaIN animal facility. Animals had ad libitum access to food (LabDiet Pico Rodent #5053; Animal Specialties, Woodburn, OR) and water. Temperature (68-74° F.) and humidity (30-60%) were maintained within a controlled range, and a 12-hour light/dark cycle was used. […] Animals were monitored closely during the first 4 hours following injection, then hourly throughout the rest of the day for any signs of swelling or discoloration (dilatory side effect), lethargy (side effect), ataxia (ataxia is used as a marker of toxicity). Rats were allowed a 1-week wash-out period between bolus doses. Following final observations, animals were humanely euthanized through CO2 asphyxiation.
# Sprague Dawley rats [2] = assay: Clinically observable adverse effects of cationic alkyl moieties after subcutaneous bolus in rats (Table 1); type: in vivo, rat; details: tested at 3.0, 5.0 or 10 μmol/kg
# Experimental: Drug administration and observation: Each rat received a subcutaneous injection of a cationic alkyl modifier (SEQ ID NO: 1-22; listed in Table 1 below) in a buffer of sterile water adjusted to a pH between 4.5-5, with an initial bolus dose of 5.0 μmol/kg and an injection volume of 1.0 mL/kg. The bolus dose level was adjusted based on observations, and animals were monitored closely for lethargy, ataxia, swelling, or discoloration during the first 4 hours post-injection and hourly thereafter. As used herein, “ataxia” means a clinical sign observed as poor muscle control that causes clumsy voluntary movements. It may cause difficulty with mobility, coordination, and eye movements. As used herein, “lethargy” means a clinical sign observed as inability or unwillingness to resume normal activity characterized by exploring and alertness. Lethargic rats are easily observed by displaying little to no activity and/or unwillingness to explore around, half closed eyes, and hunched posture. As used herein, “swelling” means a clinical sign observed as the enlargement or engorgement of body parts with blood or fluid and is associated with visible redness (discoloration). If no swelling occurred, dose level was increased to 10 μmol/kg; if swelling was present, bolus dose level was decreased to 3.0 μmol/kg. A wash-out period of 1 week was allowed between bolus doses, and animals were humanely euthanized through CO2 asphyxiation after final observation.
# cGMP = assay: Plasma cGMP after SC bolus of natriuretic peptides in CD-1 mice (pharmacodynamics, Table 3); type: in vivo; details: SC bolus 1.0 mg/kg (≤0.45 μmol/kg), baseline 10 +/−8 pmol/ml, n = 3-5
# Experimental: The test articles were formulated or dissolved in sterile water for injection on the same day of administration. […] Blood samples were collected via retro-orbital bleed at 2- and 6-hours post-injection, with two bleedings per animal at two different timepoints. The samples were collected in K2EDTA tubes, processed by centrifugation (2000×g; 15 m 4 eC within 30 minutes after collection), and the resulting plasma samples were stored at −80° C. Biochemical analysis: The plasma concentration of the respective natriuretic peptide was analyzed using commercially available ELISA kits from Phoenix Pharmaceuticals (Burlingame, CA): ANP ELISA (cat #EKE-005-06), BNP ELISA (cat #EKE-011-03), and CNP ELISA (cat #EKE-012-03). […] Plasma cGMP was analyzed using a commercially available kit from Abcam (ab133052, Waltham, MA).
Structure (SMILES),Ataxia** in n = 3 (Sprague Dawley rats [1]; up to 10 mg/kg),Lethargy* in n = 3 (Sprague Dawley rats [1]; up to 10 mg/kg),Swelling and/or Discoloration in n = 3 (Sprague Dawley rats [1]; up to 10 mg/kg),Ataxia** in n = 3 (Sprague Dawley rats [1]; value in parentheses),Lethargy* in n = 3 (Sprague Dawley rats [1]; value in parentheses),Swelling and/or Discoloration in n = 3 (Sprague Dawley rats [1]; value in parentheses),Ataxia** in n = 3 (Sprague Dawley rats [2]; ataxia is bolus dose limiting toxicity),Swelling and/or Discoloration in n = 3 (Sprague Dawley rats [2]; dose at which sign was seen),Lethargy* in n = 3 (Sprague Dawley rats [2]; lethargy is considered maximum tolerated bolus dose),"Plasma concentration of cGMP, 2 hr (cGMP; 2 hr)","Plasma concentration of cGMP, 6 hr (cGMP; 6 hr)"
CCCCCC(=O)N[C@@H](CCCCN)C(=O)N[C@@H](CCCCN)C(=O)NCC(=O)NCC(=O)NCC(=O)N[C@@H](CCN)C(=O)N[C@@H](CCN)C(=O)NCC(=O)N[C@@H](CC(C)C)C(=O)N[C@@H](CO)C(=O)N[C@@H](CCCCN)C(=O)NCC(=O)N[C@H]1CSSC[C@@H](C(=O)O)NC(=O)CNC(=O)[C@H](CC(C)C)NC(=O)CNC(=O)[C@H](CO)NC(=O)[C@H](CCC(N)=O)NC(=O)[C@H](CO)NC(=O)CNC(=O)[C@H]([C@@H](C)CC)NC(=O)[C@H](CCCNC(=N)N)NC(=O)[C@H](CC(=O)O)NC(=O)[C@H](CC(C)C)NC(=O)[C@H](CCCCN)NC(=O)[C@H](CC(C)C)NC(=O)CNC(=O)[C@H](Cc2ccccc2)NC1=O [SEQ ID NO: 28] (Hexanoyl-KKGGG[Dab][Dab]GLSKGCFGLKLDRIGSQSGLGC-OH; disulfide 13-29; C-terminus assumed),≥5 mg/kg,≥5 mg/kg,≥5 mg/kg,(1.6) μmol/kg,(1.6) μmol/kg,(1.6) μmol/kg,,,,,
CCCCCC(=O)N[C@@H](CCCCN)C(=O)N[C@@H](CCCCN)C(=O)NCC(=O)NCC(=O)NCC(=O)N[C@@H](CCCNC(=N)N)C(=O)N[C@@H](CCCNC(=N)N)C(=O)NCC(=O)N[C@@H](CC(C)C)C(=O)N[C@@H](CO)C(=O)N[C@@H](CCCCN)C(=O)NCC(=O)N[C@H]1CSSC[C@@H](C(=O)O)NC(=O)CNC(=O)[C@H](CC(C)C)NC(=O)CNC(=O)[C@H](CO)NC(=O)[C@H](CCC(N)=O)NC(=O)[C@H](CO)NC(=O)CNC(=O)[C@H]([C@@H](C)CC)NC(=O)[C@H](CCCNC(=N)N)NC(=O)[C@H](CC(=O)O)NC(=O)[C@H](CC(C)C)NC(=O)[C@H](CCCCN)NC(=O)[C@H](CC(C)C)NC(=O)CNC(=O)[C@H](Cc2ccccc2)NC1=O [SEQ ID NO: 27] (Hexanoyl-KKGGGRRGLSKGCFGLKLDRIGSQSGLGC-OH; disulfide 13-29; C-terminus assumed),≥5 mg/kg,≥5 mg/kg,≥5 mg/kg,(1.6) μmol/kg,(1.6) μmol/kg,(1.6) μmol/kg,,,,,
"CCCCCCCCCCCCCCCC(=O)NCCOCCOCC(=O)NCCOCCOCC(=O)NCCOCCOCC(=O)N[C@@H](CCCCN)C(=O)N[C@@H](CCCCN)C(=O)O [SEQ ID NO: 7, CH3(CH2)14(C═O)-Aeea-Aeea-Aeea-KK]",,,,,,,>5 µmol/kg,≥3 µmol/kg,≥5 µmol/kg,,
CCCCCCCCCCCCCCCC(=O)N[C@@H](CCCCN)C(=O)N[C@@H](CCCCN)C(=O)NCC(=O)NCC(=O)NCC(=O)N[C@@H](CCCCN)C(=O)N[C@@H](CCCCN)C(=O)NCC(=O)N[C@@H](CC(C)C)C(=O)N[C@@H](CO)C(=O)N[C@@H](CCCCN)C(=O)NCC(=O)N[C@H]1CSSC[C@@H](C(=O)O)NC(=O)CNC(=O)[C@H](CC(C)C)NC(=O)CNC(=O)[C@H](CO)NC(=O)[C@H](CCC(N)=O)NC(=O)[C@H](CO)NC(=O)CNC(=O)[C@H]([C@@H](C)CC)NC(=O)[C@H](CCCNC(=N)N)NC(=O)[C@H](CC(=O)O)NC(=O)[C@H](CC(C)C)NC(=O)[C@H](CCCCN)NC(=O)[C@H](CC(C)C)NC(=O)CNC(=O)[C@H](Cc2ccccc2)NC1=O [SEQ ID NO: 24] (Palmitoyl-KKGGGKKGLSKGCFGLKLDRIGSQSGLGC-OH; disulfide 13-29; C-terminus assumed),≥5 mg/kg,≥5 mg/kg,≥5 mg/kg,(1.6) μmol/kg,(1.6) μmol/kg,(1.6) μmol/kg,,,,,
CCCCCCCCCCCCCCCCCC(=O)N[C@@H](CCCCN)C(=O)N[C@@H](CCCCN)C(=O)N[C@@H](CCCCN)C(=O)N[C@@H](CCCCN)C(=O)NCC(=O)NCC(=O)NCC(=O)NCC(=O)N[C@@H](CC(C)C)C(=O)N[C@@H](CO)C(=O)N[C@@H](CCCCN)C(=O)NCC(=O)N[C@H]1CSSC[C@@H](C(=O)O)NC(=O)CNC(=O)[C@H](CC(C)C)NC(=O)CNC(=O)[C@H](CO)NC(=O)[C@H](CCC(N)=O)NC(=O)[C@H](CO)NC(=O)CNC(=O)[C@H]([C@@H](C)CC)NC(=O)[C@H](CCCNC(=N)N)NC(=O)[C@H](CC(=O)O)NC(=O)[C@H](CC(C)C)NC(=O)[C@H](CCCCN)NC(=O)[C@H](CC(C)C)NC(=O)CNC(=O)[C@H](Cc2ccccc2)NC1=O [SEQ ID NO: 23] (Stearoyl-KKKKGGGGLSKGCFGLKLDRIGSQSGLGC-OH; disulfide 13-29; C-terminus assumed),≥3 mg/kg,≥1 mg/kg,≥1 mg/kg,(0.94) μmol/kg,(0.31) μmol/kg,(0.31) μmol/kg,,,,,
CCCCCCCCCCCCCCCC(=O)NCC(=O)NCC(=O)NCC(=O)N[C@@H](CCCCN)C(=O)N[C@@H](CCCCN)C(=O)N[C@@H](CCCCN)C(=O)N[C@@H](CCCCN)C(=O)NCC(=O)N[C@@H](CC(C)C)C(=O)N[C@@H](CO)C(=O)N[C@@H](CCCCN)C(=O)NCC(=O)N[C@H]1CSSC[C@@H](C(=O)O)NC(=O)CNC(=O)[C@H](CC(C)C)NC(=O)CNC(=O)[C@H](CO)NC(=O)[C@H](CCC(N)=O)NC(=O)[C@H](CO)NC(=O)CNC(=O)[C@H]([C@@H](C)CC)NC(=O)[C@H](CCCNC(=N)N)NC(=O)[C@H](CC(=O)O)NC(=O)[C@H](CC(C)C)NC(=O)[C@H](CCCCN)NC(=O)[C@H](CC(C)C)NC(=O)CNC(=O)[C@H](Cc2ccccc2)NC1=O [SEQ ID NO: 25] (Palmitoyl-GGGKKKKGLSKGCFGLKLDRIGSQSGLGC-OH; disulfide 13-29; C-terminus assumed),≥5 mg/kg,≥5 mg/kg,≥5 mg/kg,(1.6) μmol/kg,(1.6) μmol/kg,(1.6) μmol/kg,,,,,
"CC[C@H](C)[C@@H]1NC(=O)[C@H](CCCNC(=N)N)NC(=O)[C@H](CC(=O)O)NC(=O)[C@H](CCSC)NC(=O)[C@H](CCCNC(=N)N)NC(=O)CNC(=O)CNC(=O)[C@H](Cc2ccccc2)NC(=O)[C@@H](NC(=O)[C@H](CO)NC(=O)[C@H](CO)NC(=O)[C@H](CCCNC(=N)N)NC(=O)[C@H](CCCNC(=N)N)NC(=O)[C@H](CC(C)C)NC(=O)[C@@H](N)CO)CSSC[C@@H](C(=O)N[C@@H](CC(N)=O)C(=O)N[C@@H](CO)C(=O)N[C@@H](Cc2ccccc2)C(=O)N[C@@H](CCCNC(=N)N)C(=O)N[C@@H](Cc2ccc(O)cc2)C(=O)O)NC(=O)CNC(=O)[C@H](CC(C)C)NC(=O)CNC(=O)[C@H](CO)NC(=O)[C@H](CCC(N)=O)NC(=O)[C@H](C)NC(=O)CNC1=O [SEQ ID NO: 44, reference compound]",,,,,,,,,,26.23 pmol/mL,14.08 pmol/mL
CCCCCCCCCCCCCCCC(=O)N[C@H](CCCCN)C(=O)N[C@H](CCCCN)C(=O)N[C@H](CCCCN)C(=O)N[C@H](CCCCN)C(=O)NCC(=O)NCC(=O)NCC(=O)NCC(=O)N[C@@H](CC(C)C)C(=O)N[C@@H](CO)C(=O)N[C@@H](CCCCN)C(=O)NCC(=O)N[C@H]1CSSC[C@@H](C(=O)O)NC(=O)CNC(=O)[C@H](CC(C)C)NC(=O)CNC(=O)[C@H](CO)NC(=O)[C@H](CCC(N)=O)NC(=O)[C@H](CO)NC(=O)CNC(=O)[C@H]([C@@H](C)CC)NC(=O)[C@H](CCCNC(=N)N)NC(=O)[C@H](CC(=O)O)NC(=O)[C@H](CC(C)C)NC(=O)[C@H](CCCCN)NC(=O)[C@H](CC(C)C)NC(=O)CNC(=O)[C@H](Cc2ccccc2)NC1=O [SEQ ID NO: 26] (Palmitoyl-[dK][dK][dK][dK]GGGGLSKGCFGLKLDRIGSQSGLGC-OH; disulfide 13-29; C-terminus assumed),≥5 mg/kg,≥5 mg/kg,≥5 mg/kg,(1.6) μmol/kg,(1.6) μmol/kg,(1.6) μmol/kg,,,,,
